Source: ChEMBL document CHEMBL1127854, “Bromobenzofuran-based non-peptide antagonists of angiotensin II: GR138950, a potent antihypertensive agent with high oral bioavailability” (J Med Chem, 1994)

Legend:
Angiotensin II receptor = molecular target: T1, Angiotensin II receptor (Rattus norvegicus, UniProt P29089+P25095+P35351); assay: Tested for in vitro binding affinity against angiotensin II receptor of rat liver
T1 sequence (P29089 whole entry): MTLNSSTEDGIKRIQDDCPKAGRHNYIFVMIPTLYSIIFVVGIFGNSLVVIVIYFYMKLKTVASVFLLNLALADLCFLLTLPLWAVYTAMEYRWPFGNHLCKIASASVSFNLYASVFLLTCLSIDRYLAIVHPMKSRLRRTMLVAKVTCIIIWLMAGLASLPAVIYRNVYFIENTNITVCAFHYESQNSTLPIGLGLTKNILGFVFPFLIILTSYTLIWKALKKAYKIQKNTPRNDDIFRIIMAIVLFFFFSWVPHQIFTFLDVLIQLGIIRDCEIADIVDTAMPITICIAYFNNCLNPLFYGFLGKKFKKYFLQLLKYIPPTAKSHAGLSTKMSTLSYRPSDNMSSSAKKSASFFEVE
T1 sequence (P25095 whole entry): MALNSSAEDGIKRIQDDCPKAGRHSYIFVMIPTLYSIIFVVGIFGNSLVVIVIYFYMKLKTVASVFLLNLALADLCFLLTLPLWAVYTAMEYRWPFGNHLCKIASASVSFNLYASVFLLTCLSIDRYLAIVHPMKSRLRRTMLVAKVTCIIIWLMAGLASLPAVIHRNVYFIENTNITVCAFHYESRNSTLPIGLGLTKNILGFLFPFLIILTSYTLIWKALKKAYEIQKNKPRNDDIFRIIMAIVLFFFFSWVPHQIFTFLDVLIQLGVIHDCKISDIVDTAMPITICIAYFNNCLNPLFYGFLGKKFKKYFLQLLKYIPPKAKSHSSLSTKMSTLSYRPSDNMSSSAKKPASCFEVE
T1 sequence (P35351 whole entry): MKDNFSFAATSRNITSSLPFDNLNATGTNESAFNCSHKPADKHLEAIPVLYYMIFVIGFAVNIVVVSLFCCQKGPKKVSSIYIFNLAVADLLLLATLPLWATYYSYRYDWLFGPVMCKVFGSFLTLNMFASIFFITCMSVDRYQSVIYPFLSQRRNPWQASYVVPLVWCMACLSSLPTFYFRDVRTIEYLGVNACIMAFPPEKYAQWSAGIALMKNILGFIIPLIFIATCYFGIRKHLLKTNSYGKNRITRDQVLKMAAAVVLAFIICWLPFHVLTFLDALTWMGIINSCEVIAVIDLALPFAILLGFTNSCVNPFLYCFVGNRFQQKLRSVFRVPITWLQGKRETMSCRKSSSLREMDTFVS

Rattus norvegicus [1] = assay: […] antihypertensive activity in renal hypertensive rat at 0.5 mg/kg after 24 hr of oral administration.; format: functional
Rattus norvegicus [2] = assay: […] antihypertensive activity in renal hypertensive rat at 0.5 mg/kg after 7 hr of oral administration.; format: functional
Rattus norvegicus [3] = assay: […] antihypertensive activity in renal hypertensive rat at 0.5 mg/kg after 5 hr of oral administration.; format: functional
Rattus norvegicus [4] = assay: In vivo antihypertensive activity in renal hypertensive rat at 1.0 mg/kg after 5 hr of oral administration.
[5] = Bioavailability in dog (dose 3-10 mg/kg); format: ADME, organism-based, Canis lupus familiaris; conditions: in vivo
[6] = The compound was tested for volume of distribution in dog at dose of 3-10 mgkg; format: ADME, organism-based, Canis lupus familiaris; conditions: in vivo
[7] = The compound was tested for plasma clearance in dog at dose of 3-10 mgkg; format: ADME, organism-based, Canis lupus familiaris
[8] = Half-life in plasma of dog at dose of […]-[…] mgkg; format: ADME, organism-based, Canis lupus familiaris
Rattus norvegicus [9] = assay: Tested for […] antihypertensive activity in renal hypertensive rat at 1 mg/kg after 5 hr of oral administration; format: functional
Rattus norvegicus [10] = assay: Tested for […] antihypertensive activity in renal hypertensive rat at 1 mg/kg after 7 hr of oral administration; format: functional
Rattus norvegicus [11] = assay: Tested for […] antihypertensive activity in renal hypertensive rat at 1 mg/kg after 24 hr of oral administration; format: functional
[12] = The compound was tested for volume of distribution in dog; format: ADME, organism-based, Canis lupus familiaris; conditions: in vivo
[13] = The compound was tested for plasma clearance in dog; format: ADME, organism-based, Canis lupus familiaris
[14] = Half-life in plasma of dog; format: ADME, organism-based, Canis lupus familiaris
[15] = The compound was tested for volume of distribution in rat at dose of 3-10 mgkg; format: ADME, organism-based; conditions: in vivo
[16] = Bioavailability in rat (dose 3-10 mg/kg); format: ADME, organism-based; conditions: in vivo
[17] = The compound was tested for plasma clearance in rat at dose of 3-10 mgkg; format: ADME, organism-based
[18] = Half-life in plasma of rat at dose of […]-[…] mgkg; format: ADME, organism-based
[19] = The compound was tested for volume of distribution in rat; format: ADME, organism-based; conditions: in vivo
[20] = Bioavailability in rat; format: ADME, organism-based; conditions: in vivo
[21] = Half-life in plasma of rat; format: ADME, organism-based
[22] = The compound was tested for plasma clearance in rat; format: ADME, organism-based

Compound | Log Ki (Angiotensin II receptor) | Activity (Rattus norvegicus [1]) | Activity (Rattus norvegicus [2]) | Activity (Rattus norvegicus [3]) | further results
CCNC(=O)c1c(Cl)nc(CC)n1Cc1ccc2oc(-c3ccccc3NS(=O)(=O)C(F)(F)F)c(Br)c2c1 | -8.7 | -12 | -43 | -37 | 
CCc1nc(C2CC2)c(C(N)=O)n1Cc1ccc2oc(-c3ccccc3NS(=O)(=O)C(F)(F)F)c(C(F)(F)F)c2c1 | -9 | -17 | -49 |  | Activity (Rattus norvegicus [4]): -48
CCCc1nc(Cl)c(C(=O)NCC)n1Cc1ccc2oc(-c3ccccc3NS(=O)(=O)C(F)(F)F)c(Br)c2c1 | -9 | -13 | -54 | -40 | 
CCc1nc(C2CC2)c(C(=O)NCC(C)C)n1Cc1ccc2oc(-c3ccccc3NS(=O)(=O)C(F)(F)F)c(Br)c2c1 | -9.9 | -47 | -70 | -63 | 
CCc1nc(Cl)c(C(N)=O)n1Cc1ccc2oc(-c3ccccc3NS(=O)(=O)C(F)(F)F)c(Br)c2c1 | -8.5 | -12 | -55 | -57 | 
CCNC(=O)c1c(C2CC2)nc(CC)n1Cc1ccc2oc(-c3ccccc3NS(=O)(=O)C(F)(F)F)c(Br)c2c1 | -9.2 | -14 | -63 | -53 | 
CCCc1nc(C)c(C(=O)NC)n1Cc1ccc2oc(-c3ccccc3NS(=O)(=O)C(F)(F)F)c(Br)c2c1 | -9 | -12 | -50 | -30 | 
CCc1nc(CC)n(Cc2ccc3oc(-c4ccccc4NS(=O)(=O)C(F)(F)F)c(Br)c3c2)c1C(N)=O | -9.1 | -17 | -38 | -35 | 
CCCCc1nc(Cl)c(C(=O)NC)n1Cc1ccc2oc(-c3ccccc3-c3nn[nH]n3)c(Br)c2c1 |  |  |  |  | bioavailability [5]: 36%; Vd [6]: 0.3 L/kg; clearance [7]: 11 mL/min/kg; half-life [8]: 30 min
CCCCc1nc(Cl)c(C(=O)NC)n1Cc1ccc2oc(-c3ccccc3NS(=O)(=O)C(F)(F)F)c(Br)c2c1 | -8.8 |  |  |  | Activity (Rattus norvegicus [9]): -40; Activity (Rattus norvegicus [10]): -45; Activity (Rattus norvegicus [11]): 7
CCCc1nc(C)c(C(N)=O)n1Cc1ccc2oc(-c3ccccc3NS(=O)(=O)C(F)(F)F)c(Br)c2c1 | -9.1 | -8 | -37 | -38 | 
CCOC(=O)c1c(C)nc(CC)n1Cc1ccc2oc(-c3ccccc3-c3nn[nH]n3)c(Br)c2c1 |  |  |  |  | bioavailability [5]: 70%; Vd [6]: 2 L/kg; clearance [7]: ~100 mL/min/kg; half-life [8]: 12 min
CCc1c(-c2ccccc2NS(=O)(=O)C(F)(F)F)oc2ccc(Cn3c(CC)nc(C4CC4)c3C(N)=O)cc12 | -8.8 | -2 | -42 | -37 | 
CCc1nc(C(C)C)c(C(N)=O)n1Cc1ccc2oc(-c3ccccc3NS(=O)(=O)C(F)(F)F)c(Br)c2c1 | -8.4 | -13 | -22 | -21 | 
CCc1nc(C)c(C(=O)NC)n1Cc1ccc2oc(-c3ccccc3NS(=O)(=O)C(F)(F)F)c(Br)c2c1 | -8.5 | -6 | -54 | -43 | 
CCc1nc(C)c(C(=O)N(C)C)n1Cc1ccc2oc(-c3ccccc3NS(=O)(=O)C(F)(F)F)c(Br)c2c1 | -8.6 | 1 | 2 | 1 | 
CCc1nc(C2CC2)c(C(N)=O)n1Cc1ccc2oc(-c3ccccc3NS(=O)(=O)C(F)(F)F)c(Br)c2c1 | -9.3 | -38 | -76 | -66 | Vd [12]: 0.9 L/kg; clearance [13]: 1.6 mL/min/kg; half-life [14]: 558 min

Compound | Log Ki (Angiotensin II receptor) | Activity (Rattus norvegicus [1]) | Activity (Rattus norvegicus [2]) | Activity (Rattus norvegicus [3]) | further results
CCc1nc(CC(C)C)c(C(N)=O)n1Cc1ccc2oc(-c3ccccc3NS(=O)(=O)C(F)(F)F)c(Br)c2c1 | -7.7 | -8 | -19 | -4 | 
CCc1nc(C)c(C(=O)O)n1Cc1ccc2oc(-c3ccccc3-c3nn[nH]n3)c(Br)c2c1 |  |  |  |  | bioavailability [5]: 8%; Vd [6]: 2 L/kg; clearance [7]: 6 mL/min/kg; half-life [8]: 240 min
CCCc1nc(Cl)c(C(N)=O)n1Cc1ccc2oc(-c3ccccc3NS(=O)(=O)C(F)(F)F)c(Br)c2c1 | -8.7 | 9 | -28 | -19 | 
CCc1nc(C2CC2)c(C(N)=O)n1Cc1ccc2oc(-c3ccccc3NS(=O)(=O)C(F)(F)F)cc2c1 | -7 | 7 | -16 | -18 | 
CCCCc1nc(Cl)c(CO)n1Cc1ccc2oc(-c3ccccc3-c3nn[nH]n3)c(Br)c2c1 |  |  |  |  | Vd [15]: 1.3 L/kg; bioavailability [16]: 37%; clearance [17]: 18 mL/min/kg; half-life [18]: 60 min
CCCc1nc(Cl)c(C(=O)NC)n1Cc1ccc2oc(-c3ccccc3NS(=O)(=O)C(F)(F)F)c(Br)c2c1 | -8.9 | -19 | -61 | -67 | 
CCNC(=O)c1c(C2CC2)nc(CC)n1Cc1ccc2oc(-c3ccccc3-c3nn[nH]n3)c(Br)c2c1 | -9.4 | -1 | -9 | -8 | 
CCNC(=O)c1c(C2CC2)nc(CC)n1Cc1ccc2oc(-c3ccccc3C(=O)O)c(Br)c2c1 | -8.6 |  |  |  | Activity (Rattus norvegicus [9]): 6; Activity (Rattus norvegicus [10]): 0; Activity (Rattus norvegicus [11]): 4
CCc1nc(Cl)c(C(=O)NC)n1Cc1ccc2oc(-c3ccccc3NS(=O)(=O)C(F)(F)F)c(Br)c2c1 | -8.6 | -4 | -31 | -30 | 
CCc1nc(C2CC2)c(C(N)=O)n1Cc1ccc2oc(-c3ccccc3NS(=O)(=O)C(F)(F)F)c(Cl)c2c1 | -8.9 | -42 | -60 |  | Activity (Rattus norvegicus [4]): -57
CCCc1nc(C)c(C(=O)NCC)n1Cc1ccc2oc(-c3ccccc3NS(=O)(=O)C(F)(F)F)c(Br)c2c1 | -9.5 | -30 | -48 | -33 | Vd [19]: 11 L/kg; bioavailability [20]: 90%; half-life [21]: 270 min; clearance [22]: 29 mL/min/kg
CNC(=O)c1c(C)nc(C)n1Cc1ccc2oc(-c3ccccc3NS(=O)(=O)C(F)(F)F)c(Br)c2c1 | -7.5 | -3 | 0 | 6 | 
CCNC(=O)c1c(C)nc(CC)n1Cc1ccc2oc(-c3ccccc3NS(=O)(=O)C(F)(F)F)c(Br)c2c1 | -8.9 | 4 | -33 | -17 | 
CCc1nc(C)c(C(N)=O)n1Cc1ccc2oc(-c3ccccc3NS(=O)(=O)C(F)(F)F)c(Br)c2c1 | -8.9 | -3 | -61 | -40 | 
CCc1nc(C2CC2)c(C(=O)NC)n1Cc1ccc2oc(-c3ccccc3NS(=O)(=O)C(F)(F)F)c(Br)c2c1 | -9.4 | -9 | -52 | -60 | 
CCCCc1nc(Cl)c(CO)n1Cc1ccc(-c2ccccc2-c2nnn[nH]2)cc1 [LOSARTAN] |  | -36 | -41 | -30 | 
CCCCc1nc(Cl)c(C(=O)O)n1Cc1ccc2oc(-c3ccccc3-c3nn[nH]n3)c(Br)c2c1 [ZOLASARTAN] |  |  |  |  | bioavailability [5]: 9%; Vd [6]: 1.2 L/kg; clearance [7]: 6 mL/min/kg; half-life [8]: 150 min
